The values that follow are results of earlier work, collected in paper PMC11676667, “Pharmacokinetics of Oral Cannabinoid Δ8-Tetrahydrocannabivarin and Its Main Metabolites in Healthy Participants” (Pharmaceuticals, 2024).

For series [1] the following is noted: oral MCT oil formulation, healthy participants; cited from earlier work.
For series [2] the following is noted: oral cannabis brownie; cited from earlier work.
In the next series the test system is CB1 receptor. The settings on record: in vitro, cited from earlier work.

Read-outs that look alike come from different tables or passages of the source.

Take `CCCc1cc(O)c2c(c1)OC(C)(C)[C@@H]1CC=C(C)C[C@@H]21` [Δ8-THCV, Δ8-tetrahydrocannabivarin]: the safety and tolerability entry in series [1] is “safe and well tolerated”.
The term Tmax denotes the time at which the peak concentration occurs. Consider `CCCc1cc(O)c2c(c1)OC(C)(C)[C@@H]1CCC(C(=O)O)=C[C@@H]21` [Δ9-THCV-COOH, 11-nor-9-carboxy-Δ9-THCV], for which the Tmax in series [2] is 3 h.
As to `CCCc1cc(O)c2c(c1)OC(C)(C)[C@@H]1CCC(C)=C[C@@H]21` [Δ9-THCV, Δ9-tetrahydrocannabivarin], the “CB1 receptor antagonist potency relative to Δ8-THCV” value in the series with CB1 receptor (at low doses) is reported as “approximately two times more potent”; in the series with CB1 receptor, “two-fold more potent”.
